In experiment [1] the test system is U-937. The experiment in a line: Effect on DNMT1 level in human U937 cells at 0.5 to 5 uM after 24 hrs by Western blot analysis. It is filed as functional, cell-based.
Experiment [2] concerns the target T1, NAD-dependent protein deacetylase sirtuin-1 (Homo sapiens) (UniProt Q96EB6).
T1 sequence (whole entry): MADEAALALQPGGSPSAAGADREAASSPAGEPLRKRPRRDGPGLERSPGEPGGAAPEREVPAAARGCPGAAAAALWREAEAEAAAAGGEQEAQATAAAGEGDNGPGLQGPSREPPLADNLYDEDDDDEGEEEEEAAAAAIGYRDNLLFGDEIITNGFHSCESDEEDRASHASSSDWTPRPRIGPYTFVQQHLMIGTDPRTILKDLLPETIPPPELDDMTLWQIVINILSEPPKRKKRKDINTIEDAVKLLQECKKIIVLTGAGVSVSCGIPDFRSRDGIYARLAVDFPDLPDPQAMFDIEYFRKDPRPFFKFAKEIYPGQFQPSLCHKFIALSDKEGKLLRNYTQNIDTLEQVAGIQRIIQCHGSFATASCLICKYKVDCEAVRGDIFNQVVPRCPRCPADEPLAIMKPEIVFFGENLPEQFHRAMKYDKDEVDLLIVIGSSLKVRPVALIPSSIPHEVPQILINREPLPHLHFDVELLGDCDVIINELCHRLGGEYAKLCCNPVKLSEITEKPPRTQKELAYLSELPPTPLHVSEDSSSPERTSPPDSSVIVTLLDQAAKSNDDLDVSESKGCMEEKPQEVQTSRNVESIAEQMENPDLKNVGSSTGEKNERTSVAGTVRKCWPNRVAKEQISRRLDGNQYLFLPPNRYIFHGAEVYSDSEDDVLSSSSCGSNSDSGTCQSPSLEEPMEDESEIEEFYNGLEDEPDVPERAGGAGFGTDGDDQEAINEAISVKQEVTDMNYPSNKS
The experiment in a line: Inhibition of SIRT1 in human U937 cells assessed as H3 acetylation on lysine K9 at 5 uM after 24 hrs by Western blot analysis. The settings on record: U-937. It is filed as cell-based.

Experiment [3] deals with T1, NAD-dependent protein deacetylase sirtuin-1 (Homo sapiens). In words: Inhibition of SIRT1 in human U937 cells assessed as H3 acetylation on lysine K56 at 5 uM after 24 hrs by Western blot analysis. Particulars: U-937. It is filed as cell-based. (In western blotting, separated proteins are transferred to a membrane and probed.)
Experiment [4] has as its target T2, Protein deacetylase HDAC6 (Homo sapiens) (UniProt Q9UBN7).
T2 sequence (whole entry): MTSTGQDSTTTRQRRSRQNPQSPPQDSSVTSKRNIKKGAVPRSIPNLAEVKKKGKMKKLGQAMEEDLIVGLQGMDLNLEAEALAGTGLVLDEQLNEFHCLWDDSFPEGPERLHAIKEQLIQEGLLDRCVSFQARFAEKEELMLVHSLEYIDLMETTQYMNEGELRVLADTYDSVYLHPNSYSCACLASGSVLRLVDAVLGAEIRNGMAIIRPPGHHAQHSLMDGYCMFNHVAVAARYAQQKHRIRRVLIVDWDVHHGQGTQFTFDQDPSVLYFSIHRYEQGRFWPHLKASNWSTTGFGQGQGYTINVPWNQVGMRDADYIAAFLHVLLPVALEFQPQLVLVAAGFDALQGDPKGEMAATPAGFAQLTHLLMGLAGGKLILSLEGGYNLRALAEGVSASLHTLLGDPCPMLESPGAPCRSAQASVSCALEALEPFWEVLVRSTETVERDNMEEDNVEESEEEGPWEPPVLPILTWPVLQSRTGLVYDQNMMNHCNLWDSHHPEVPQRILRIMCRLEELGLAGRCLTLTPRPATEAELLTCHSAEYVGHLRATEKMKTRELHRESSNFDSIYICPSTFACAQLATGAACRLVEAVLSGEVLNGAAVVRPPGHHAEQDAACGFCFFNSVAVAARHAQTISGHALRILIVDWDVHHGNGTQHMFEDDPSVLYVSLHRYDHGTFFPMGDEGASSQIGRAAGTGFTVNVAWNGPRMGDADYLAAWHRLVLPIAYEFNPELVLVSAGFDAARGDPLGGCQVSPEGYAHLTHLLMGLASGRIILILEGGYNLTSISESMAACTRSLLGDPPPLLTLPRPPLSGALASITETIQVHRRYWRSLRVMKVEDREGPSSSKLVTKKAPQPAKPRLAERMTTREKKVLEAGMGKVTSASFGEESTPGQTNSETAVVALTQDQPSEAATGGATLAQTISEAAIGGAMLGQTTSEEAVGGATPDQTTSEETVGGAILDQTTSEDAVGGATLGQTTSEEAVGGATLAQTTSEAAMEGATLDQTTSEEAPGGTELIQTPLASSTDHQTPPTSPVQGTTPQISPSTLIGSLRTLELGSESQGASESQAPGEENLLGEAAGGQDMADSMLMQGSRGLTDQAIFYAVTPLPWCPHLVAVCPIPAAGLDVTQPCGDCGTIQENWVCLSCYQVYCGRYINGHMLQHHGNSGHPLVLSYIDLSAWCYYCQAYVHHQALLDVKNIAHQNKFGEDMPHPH
The experiment in a line: Inhibition of HDAC6 in human U937 cells assessed as induction of alpha-tubulin acetylation at 5 uM after 30 hrs by cytofluorimetric analysis. The settings on record: U-937. It counts as cell-based.

Experiment [5] addresses T1, NAD-dependent protein deacetylase sirtuin-1 (Homo sapiens). The experiment in a line: Inhibition of human recombinant SIRT1 using KI-177 as substrate at 5 uM after 30 mins by fluorescence assay.
For experiment [6], the target named is Histone deacetylase (Homo sapiens) (UniProt Q13547+O15379+Q9UBN7+Q92769+Q9UQL6+Q8WUI4+Q9BY41+Q96DB2+P56524+Q9UKV0+Q969S8). In words: Inhibition of HDAC in human U937 cells assessed as induction of histone H3 acetylation at 5 uM after 30 hrs by cytofluorimetric analysis. It is filed as cell-based. Particulars: U-937.
Experiment [7] has as its target Histone deacetylase 4 (Homo sapiens) (UniProt P56524). The experiment in a line: Inhibition of HDAC4 in human U937 cells at 5 uM […]. It is filed as cell-based. The settings on record: U-937.
In experiment [8] the test system is U-937. The experiment in a line: Induction of cell differentiation in human U937 cells assessed as CD11c expression at 5 uM after 30 hrs by cytofluorimetric analysis. It counts as functional, cell-based.
Experiment [9] concerns the target Histone deacetylase 1 (Homo sapiens) (UniProt Q13547). The experiment in a line: Inhibition of HDAC1 in human U937 cells at 5 uM […]. It is filed as cell-based. The settings on record: U-937.
In experiment [10] the test system is U-937. In words: Induction of apoptosis in human U937 cells at 5 uM after 30 hrs. It counts as functional, cell-based.
Experiment [11] deals with DNA (cytosine-5)-methyltransferase 1 (Homo sapiens) (UniProt P26358). In words: Inhibition of DNMT1 human u937 cells assessed as reactivation of p16 expression at 0.5 to 5 uM after 24 hrs by Western blot analysis.
Chain of DNA (cytosine-5)-methyltransferase 1 (Homo sapiens) (P26358 whole entry): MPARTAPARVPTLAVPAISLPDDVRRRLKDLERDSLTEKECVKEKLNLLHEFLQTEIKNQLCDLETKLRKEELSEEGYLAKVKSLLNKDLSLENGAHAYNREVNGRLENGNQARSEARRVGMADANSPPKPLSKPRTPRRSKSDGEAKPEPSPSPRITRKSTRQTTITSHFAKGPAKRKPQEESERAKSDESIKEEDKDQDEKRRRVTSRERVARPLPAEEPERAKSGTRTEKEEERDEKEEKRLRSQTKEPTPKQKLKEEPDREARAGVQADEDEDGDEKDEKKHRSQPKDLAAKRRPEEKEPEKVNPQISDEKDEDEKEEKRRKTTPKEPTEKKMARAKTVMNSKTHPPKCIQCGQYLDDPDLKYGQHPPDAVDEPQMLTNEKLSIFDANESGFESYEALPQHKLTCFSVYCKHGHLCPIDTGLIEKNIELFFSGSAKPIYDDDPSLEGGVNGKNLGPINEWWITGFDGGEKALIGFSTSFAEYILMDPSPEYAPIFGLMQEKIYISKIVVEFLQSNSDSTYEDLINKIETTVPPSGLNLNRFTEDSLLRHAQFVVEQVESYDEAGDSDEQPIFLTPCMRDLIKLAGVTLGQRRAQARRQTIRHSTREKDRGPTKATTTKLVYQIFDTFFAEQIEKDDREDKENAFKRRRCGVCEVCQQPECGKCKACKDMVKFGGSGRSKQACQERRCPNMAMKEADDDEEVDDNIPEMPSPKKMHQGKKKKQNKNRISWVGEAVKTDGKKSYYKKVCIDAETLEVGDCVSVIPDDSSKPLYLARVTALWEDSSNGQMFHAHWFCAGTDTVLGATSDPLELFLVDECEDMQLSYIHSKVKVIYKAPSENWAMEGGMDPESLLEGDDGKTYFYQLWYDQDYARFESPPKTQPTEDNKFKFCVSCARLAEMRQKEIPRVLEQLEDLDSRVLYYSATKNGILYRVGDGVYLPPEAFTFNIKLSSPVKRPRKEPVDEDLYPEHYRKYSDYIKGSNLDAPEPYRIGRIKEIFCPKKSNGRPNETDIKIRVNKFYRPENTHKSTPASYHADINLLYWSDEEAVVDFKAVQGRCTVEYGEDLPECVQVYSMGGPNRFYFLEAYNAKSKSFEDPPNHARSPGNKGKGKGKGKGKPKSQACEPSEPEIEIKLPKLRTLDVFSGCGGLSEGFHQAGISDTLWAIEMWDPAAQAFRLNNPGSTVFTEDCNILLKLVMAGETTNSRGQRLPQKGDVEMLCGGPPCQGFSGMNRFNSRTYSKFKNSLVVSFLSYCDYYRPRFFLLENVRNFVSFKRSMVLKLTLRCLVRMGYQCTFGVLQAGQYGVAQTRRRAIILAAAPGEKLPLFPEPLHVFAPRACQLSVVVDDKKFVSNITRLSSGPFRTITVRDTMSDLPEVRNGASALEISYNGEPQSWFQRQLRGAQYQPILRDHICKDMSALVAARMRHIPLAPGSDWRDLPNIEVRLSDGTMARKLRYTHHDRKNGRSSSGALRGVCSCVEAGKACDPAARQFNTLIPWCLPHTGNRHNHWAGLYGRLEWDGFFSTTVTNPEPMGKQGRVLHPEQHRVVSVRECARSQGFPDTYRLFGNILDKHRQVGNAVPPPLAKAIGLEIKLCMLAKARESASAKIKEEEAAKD
Experiment [12] concerns the target T1, NAD-dependent protein deacetylase sirtuin-1 (Homo sapiens). The experiment in a line: Inhibition of SIRT1 in human MCF7 cells assessed as p53 acetylation on lysine 382 at 5 uM after 24 hrs by Western blot analysis. It counts as cell-based.
The target of experiment [13] is Protein kinase C alpha type (Homo sapiens) (UniProt P17252). The experiment in a line: Inhibition of PKCalpha in human U937 cells assessed as p21WAF1/CIP1 expression at 5 uM after 30 hrs by cytofluorimetric analysis. It counts as cell-based. The settings on record: U-937.
In experiment [14] the target is DNA (cytosine-5)-methyltransferase 1 (Homo sapiens) (UniProt P26358). The experiment in a line: Inhibition of recombinant DNMT1 using S-adenosyl-L-[methyl-3H]methionine as substrate at 5 uM after 2 hrs by radioactive assay.
Experiment [15] has as its target T1, NAD-dependent protein deacetylase sirtuin-1 (Homo sapiens). In words: Inhibition of SIRT1 in human MCF7 cells assessed as p53 acetylation on lysine 382 after 24 hrs by Western blot analysis. It counts as cell-based.

Activity calls are given as the source filed them. The calls are words filed in the database; no cut-off is given here.

Chain of Histone deacetylase 4 (Homo sapiens) (P56524 whole entry): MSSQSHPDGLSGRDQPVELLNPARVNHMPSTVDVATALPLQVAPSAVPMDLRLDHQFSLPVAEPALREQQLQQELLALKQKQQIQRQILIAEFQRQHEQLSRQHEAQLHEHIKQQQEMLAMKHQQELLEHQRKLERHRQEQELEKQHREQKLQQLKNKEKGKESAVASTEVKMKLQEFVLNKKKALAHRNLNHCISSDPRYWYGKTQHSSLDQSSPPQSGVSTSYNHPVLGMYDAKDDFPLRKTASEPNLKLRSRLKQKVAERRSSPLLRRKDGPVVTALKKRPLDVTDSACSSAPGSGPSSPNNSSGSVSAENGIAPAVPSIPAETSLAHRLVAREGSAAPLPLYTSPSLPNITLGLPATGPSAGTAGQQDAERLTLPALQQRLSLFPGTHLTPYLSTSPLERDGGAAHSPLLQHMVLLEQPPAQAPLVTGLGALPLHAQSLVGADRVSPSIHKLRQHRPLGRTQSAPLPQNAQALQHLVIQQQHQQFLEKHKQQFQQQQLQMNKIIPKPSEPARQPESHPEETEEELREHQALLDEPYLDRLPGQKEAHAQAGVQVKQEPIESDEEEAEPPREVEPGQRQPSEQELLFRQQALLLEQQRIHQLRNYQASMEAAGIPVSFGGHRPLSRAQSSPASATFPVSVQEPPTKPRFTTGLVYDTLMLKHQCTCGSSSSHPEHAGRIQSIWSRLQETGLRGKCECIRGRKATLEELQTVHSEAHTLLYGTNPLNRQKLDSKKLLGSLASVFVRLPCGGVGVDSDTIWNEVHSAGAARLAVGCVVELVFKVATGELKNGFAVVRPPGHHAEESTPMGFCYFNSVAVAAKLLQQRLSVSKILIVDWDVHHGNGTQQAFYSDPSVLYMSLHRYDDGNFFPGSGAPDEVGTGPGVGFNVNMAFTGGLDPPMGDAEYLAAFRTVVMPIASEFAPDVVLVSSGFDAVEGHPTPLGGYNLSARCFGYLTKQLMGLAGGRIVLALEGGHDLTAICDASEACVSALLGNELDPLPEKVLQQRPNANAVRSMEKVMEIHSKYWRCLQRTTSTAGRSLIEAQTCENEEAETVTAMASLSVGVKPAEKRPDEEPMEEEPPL
Chain of Histone deacetylase 1 (Homo sapiens) (Q13547 whole entry): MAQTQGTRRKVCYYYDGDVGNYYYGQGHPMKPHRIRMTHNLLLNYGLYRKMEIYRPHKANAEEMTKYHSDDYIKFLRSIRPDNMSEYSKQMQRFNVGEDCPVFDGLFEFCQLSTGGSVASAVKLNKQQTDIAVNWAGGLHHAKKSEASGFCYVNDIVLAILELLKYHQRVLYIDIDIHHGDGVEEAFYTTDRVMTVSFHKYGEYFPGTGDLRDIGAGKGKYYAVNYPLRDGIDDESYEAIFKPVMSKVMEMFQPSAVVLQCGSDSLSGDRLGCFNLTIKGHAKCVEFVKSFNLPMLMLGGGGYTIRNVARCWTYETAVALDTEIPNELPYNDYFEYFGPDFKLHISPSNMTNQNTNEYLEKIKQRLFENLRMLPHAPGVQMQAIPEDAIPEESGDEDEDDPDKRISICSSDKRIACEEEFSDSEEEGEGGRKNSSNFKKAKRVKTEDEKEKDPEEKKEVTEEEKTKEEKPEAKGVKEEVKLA

The inhibition is the drop in the measured response relative to a control, in per cent. In the case of `COCCNC(=O)/C(Cc1c[nH]c2ccc(Br)cc12)=N/O`, the outcome with U-937 [1] was inactive. Further, the inhibition entry in [2], in experiment [3] and in experiment [5] was “inactive” each time. The inhibition result in experiment [4] was “Active”.
In the case of `O=C(NCCSSCCNC(=O)/C(Cc1c[nH]c2cccc(Br)c12)=N/O)/C(Cc1c[nH]c2cccc(Br)c12)=N/O`, the inhibition result in experiment [4] is “Active”.
Turning to `O=C(NCCCCSSCCCCNC(=O)/C(Cc1c[nH]c2ccc(Br)cc12)=N/O)/C(Cc1c[nH]c2ccc(Br)cc12)=N/O`, the inhibition entry in [6], in experiment [5] and in experiment [12] was “inactive” in each case. In addition, the inhibition stood at 20% in [7] and 40% in [9]. For the same compound, the outcome with U-937 [1] was inactive. The outcome with U-937 [8] and with U-937 [10] was Active. Also, the inhibition entry in [2], in experiment [11], in experiment [3] and in [4] was “Active” each time.
Consider `O=C(NCCSSCCNC(=O)/C(Cc1cn(Cc2ccc(Br)cc2)c2ccc(Br)cc12)=N/O)/C(Cc1cn(Cc2ccc(Br)cc2)c2ccc(Br)cc12)=N/O`, for which the outcome in the experiment with U-937 [1] was inactive. In addition, the inhibition result in experiment [2], in experiment [3], in experiment [4] and in experiment [5] was “Active” throughout.
Turning to `O=C(NCCSSCCNC(=O)/C(Cc1c[nH]c2ccc(Br)cc12)=N/OCc1ccccc1)/C(Cc1c[nH]c2ccc(Br)cc12)=N/OCc1ccccc1`, the inhibition result in experiment [4] was “Active”.
On to `O=C(NCCSSCCNC(=O)/C(Cc1c[nH]c2ccc(Cl)cc12)=N/O)/C(Cc1c[nH]c2ccc(Cl)cc12)=N/O`, for which the inhibition result in experiment [6], in experiment [7], in [9], in experiment [13] and in experiment [4] was “Active” throughout. Besides, in the experiment with U-937 [10], the outcome was Active.
With `O=C(NCCSSCCNC(=O)/C(Cc1c[nH]c2ccc(I)cc12)=N/O)/C(Cc1c[nH]c2ccc(I)cc12)=N/O`, the inhibition entry in [6], in experiment [7], in [9], in [13] and in experiment [4] was “Active” each time. Further, in the experiment with U-937 [10], the result was Active.
As to `O=C(NCCSSCCNC(=O)/C(Cc1c[nH]c2ccccc12)=N/O)/C(Cc1c[nH]c2ccccc12)=N/O`, the inhibition entry in [6], in experiment [13], in experiment [4], in experiment [5] and in experiment [12] was “Active” throughout. Besides, the values for the inhibition in [7] and in experiment [9] were 20% and 40%, respectively. The outcome in the experiment on U-937 [1] was inactive.
On to `O=C(O)[C@H](Cc1c[nH]c2ccccc12)N1C(=O)c2ccccc2C1=O`, for which the inhibition entry in experiment [14] is “Active”.
`Cn1cc(CCC(=O)NCCSSCCNC(=O)CCc2cn(C)c3ccc(Br)cc23)c2cc(Br)ccc21`: the inhibition result in experiment [4] was “Active”.
In the case of `O=C(NCCCCCCCCNC(=O)/C(Cc1c[nH]c2ccc(Br)cc12)=N/O)/C(Cc1c[nH]c2ccc(Br)cc12)=N/O`, the outcome in the experiment with U-937 [1] was inactive. Also, the inhibition result in [2], in [11], in experiment [3], in experiment [4] and in [5] was “Active” throughout. Besides, the inhibition entry in experiment [14] was “inactive”.
On to `O=C(NCCCCCSSCCCCCNC(=O)/C(Cc1c[nH]c2ccc(Br)cc12)=N/O)/C(Cc1c[nH]c2ccc(Br)cc12)=N/O`, for which the inhibition in experiment [7] was 20%; in [9], 40%. Further, in experiment [4], the inhibition result was “Active”.
Regarding `O=C(CCc1c[nH]c2ccc(Br)cc12)NCCSSCCNC(=O)CCc1c[nH]c2ccc(Br)cc12`, the inhibition result in [6], in [9], in experiment [13] and in experiment [4] was “Active” each time. In the experiment on U-937 [1], the result was inactive. In the experiment on U-937 [10], the outcome was Active. Further, the inhibition result in experiment [15] was “Dose-dependent effect”. Moreover, in experiment [14], the inhibition entry was “inactive”.
Turning to `O=C(NCCSSCCNC(=O)/C(Cc1c[nH]c2ccc(F)cc12)=N/O)/C(Cc1c[nH]c2ccc(F)cc12)=N/O`, the inhibition entry in experiment [6], in [13] and in experiment [4] was “inactive” each time. Further, the inhibition result in [7] and in experiment [9] was “Active” each time. Also, in the experiment on U-937 [10], the outcome was Active.
Regarding `O=C(NCCCSSCCCNC(=O)/C(Cc1c[nH]c2ccc(Br)cc12)=N/O)/C(Cc1c[nH]c2ccc(Br)cc12)=N/O`, the result in the experiment on U-937 [8] was Active. Besides, the inhibition entry in [4] was “Active”.
For `CO/N=C(\Cc1c[nH]c2ccc(Br)cc12)C(=O)NCCSSCCNC(=O)/C(Cc1c[nH]c2ccc(Br)cc12)=N/OC`, the inhibition result in experiment [7], in [9], in experiment [11], in experiment [4] and in experiment [14] was “Active” in each case. The outcome with U-937 [1] was inactive.
`COc1ccc2[nH]cc(C/C(=N\O)C(=O)NCCSSCCNC(=O)/C(Cc3c[nH]c4ccc(OC)cc34)=N/O)c2c1`: the inhibition entry in experiment [6], in [7], in experiment [9], in experiment [13] and in experiment [4] was “Active” each time. Further, the result in the experiment on U-937 [8] and with U-937 [10] was Active.

For the origin of these results see ChEMBL document CHEMBL2177007, “Indole-derived psammaplin A analogues as epigenetic modulators with multiple inhibitory activities” (J Med Chem, 2012).
